Reference: patent US20220313724A1, “COMPOSITIONS FOR INTRATUMORAL ADMINISTRATION AND RELATED METHODS” (HIGHLIGHT THERAPEUTICS, S.L., priority 2021, published 2022)

What was measured:
MC38 or B16.OVA cells = assay: Single-agent repeated intratumoral injections in mice bearing bilateral tumors; assay type: in vivo, mouse; conditions: injected tumor
Source text: Mouse tumor models. […] Female mice were used at 8-12 weeks of age and housed under specific pathogen-free conditions. The abscopal effect was studied by injecting 4×10^5 MC38 or B16.OVA cells subcutaneously (s.c.) into the right flank of C57BL/6 mice, whereas the left flank received an injection (s.c.) of 2×10^5 (MC38) or 1.25×10^5 (B16.OVA) cancer cells. When right tumors reached a tumor volume of 80-100 mm^3 (approximately one week after tumor inoculation), mice were randomized into different treatment groups.
Evaluation of compounds. […] Control mice received intratumoral injections of PBS containing 5% glucose and/or 5% DMSO (vehicle) as indicated. Treated and untreated tumors were measured twice a week with calipers and the volume was calculated (length×width^2/2). […] When right and left tumors reached a diameter of 80-100 mm, mice were randomized to three groups. […] The control, untreated third-party tumor was untreated in all groups.

[1] = system: circulating cytokines or chemokines; assay: Circulating cytokines or chemokines after intratumoral treatment; assay type: in vivo, mouse; conditions: systemic

What does the source list for `Cc1ccc2c(=O)c3cccc(CC(=O)O)c3oc2c1C` [DMXAA, 5,6-dimethylxanthenone-4-acetic acid]?
response of directly injected tumors to the treatment (MC38 or B16.OVA cells): remarkably responded; circulating type I Interferons, IL-12, IL-18, TNFalpha (TNFα) and CXCL10 [1]: either did not cause systemic circulating elevations or only enhanced those observed upon treatment with BO-112
